Source: patent publication US8685972B2, “Pyrimidine derivatives for treatment of alzheimer's disease” (Merck Sharp & Dohme Corp., priority 2008, dated 2014)

Target: T1, γ-secretase (Homo sapiens, UniProt P49768)
T1 construct: Human SH-SY5Y neuroblastoma cells overexpressing the direct β-secretase substrate SPA4CT; endogenous in cells; host or cells: human SH-SY5Y neuroblastoma cells (stably overexpressing the substrate SPA4CT, induced with sodium butyrate)
Assay: Cell-Based γ-Secretase Assay (inhibition of Aβ(1-42) production, Meso Scale detection)
Details: Human SH-SY5Y neuroblastoma cells overexpressing SPA4CT; overnight incubation; Aβ(42) in media
Protocol: Cell-Based γ-Secretase Assay
Human SH-SY5Y neuroblastoma cells overexpressing the direct β-secretase substrate SPA4CT were induced with sodium butyrate (10 mM) for 4 hours prior to plating. Cells were plated at 35,000 cells/well/100 μl in 96-well plates in phenol red-free MEM/10% FBS, 50 mM HEPES, 1% Glutamine and incubated for 2 hrs at 37° C., 5% CO2.
Compounds for testing were diluted into Me2SO to give a ten point dose-response curve. Typically 10 μl of these diluted compounds in Me2SO were further diluted into 182 μl dilution buffer (phenol red-free MEM/10% FBS, 50 mM HEPES, 1% Glutamine) and 10 μl of each dilution was added to the cells in 96-well plates (yielding a final Me2SO concentration of 0.5%). Appropriate vehicle and inhibitor controls were used to determine the window of the assay.
After incubation overnight at 37° C., 5% CO2, 25 μl and 50 μl media were transferred into a standard Meso avidin-coated 96-well plate for detection of Aβ(40) and Aβ(42) peptides, respectively. 25 μl Meso Assay buffer (PBS, 2% BSA, 0.2% Tween-20) was added to the Aβ(40) wells followed by the addition of 25 μl of the respective antibody premixes to the wells:
Aβ(40) premix: 1 μg/ml ruthenylated G2-10 antibody, 4 μg/ml biotinylated 4G8 antibody diluted in Origen buffer
Aβ(42) premix: 1 μg/ml ruthenylated G2-11 antibody, 4 μg/ml biotinylated 4G8 antibody diluted in Origen buffer
(Biotinylated 4G8 antibody supplied by Signet Pathology Ltd; G2-10 and G2-11 antibodies supplied by Chemicon)
After overnight incubation of the assay plates on a shaker at 4° C., the Meso Scale Sector 6000 Imager was calibrated according to the manufacturer's instructions. After washing the plates 3 times with 150 μl of PBS per well, 150 μl Meso Scale Discovery read buffer was added to each well and the plates were read on the Sector 6000 Imager according to the manufacturer's instructions.
LD50 and IC50 values for inhibition of Aβ(40) and Aβ(42) were calculated by nonlinear regression fit analysis using the appropriate software (eg. Excel fit). The total signal and the background were defined by the corresponding Me2SO and inhibitor controls.

| SMILES | IC50 [µM] |
| --- | --- |
| Cc1ccc(C(C)(C)C)cc1Nc1ccnc(N2CCC(Cc3ccncc3)CC2)n1 [Example 4] | 0.5 to 1.5 |
| CCOc1cc(C)c(Nc2nc(N3CCC(Cc4ccncc4)CC3)ncc2Cl)cc1C(C)C [Example 11] | 0.5 to 1.5 |
| Cc1ccc(C(C)(C)C)cc1Nc1nc(N2CCC(Cc3ccncc3)CC2)ncc1F [Example 22] | 1.5 to 3 |

Second part, the molecule after the results:

| IC50 [µM] | SMILES |
| --- | --- |
| 1.5 to 3 | COc1cnc(N2CCC(Cc3ccncc3)CC2)nc1Nc1cc(N(C)C)ccc1C [Example 6] |
| 1.5 to 3 | Cc1cc(C)c(N(C)C)cc1Nc1ccnc(N2CCC(Cc3ccncc3)CC2)n1 [Example 10] |
| 0.5 to 1.5 | Cc1ccc(OC(C)C)cc1Nc1ccnc(N2CCC(Cc3ccncc3)CC2)n1 [Example 12] |
| 0.5 to 1.5 | COC(=O)c1cc(Nc2cc(C(C)(C)C)ccc2C)nc(N2CCC(Cc3ccncc3)CC2)n1 [Example 18] |
